Results reported in ChEMBL document CHEMBL6177971, “Iterative Optimization Yields Stapled Peptides with Superior Pharmacokinetics and Potency for Renal Fibrosis Treatment” (J Med Chem, 2025).
Active and inactive are the calls of the source.

How the values were obtained:
NIH3T3 [1] = assay: Inhibition of TGF-beta1-induced EMT in mouse NIH3T3 cells assessed as decrease in alpha-SMA level at 10 uM incubated for 48 hrs by Western blot analysis; format: functional, cell-based
NIH3T3 [2] = assay: Inhibition of TGF-beta1-induced EMT in mouse NIH3T3 cells assessed as decrease in fibronectin level at 10 uM incubated for 48 hrs by Western blot analysis; format: functional, cell-based
NIH3T3 [3] = assay: Cytotoxicity against mouse NIH3T3 cells assessed as inhibition of cell viability at 10 to 40 uM incubated for 48 hrs by CCK8 assay; format: toxicity, cell-based; conditions: nih3t3, 48 h, dose 10-40 µM
[4] = Half life in male C57BL/6J mouse at 2.8 mg/kg, iv measured for 3 to 240 mins by UHPLC-HRMS analysis; format: ADME, organism-based; conditions: in vivo, time 3-240 min
[5] = AUC (0 to t) in male C57BL/6J mouse at 2.8 mg/kg, iv measured for 3 to 240 mins by UHPLC-HRMS analysis; format: ADME, organism-based; conditions: in vivo, time 3-240 min
[6] = AUC (0 to infinity) in male C57BL/6J mouse at 2.8 mg/kg, iv measured for 3 to 240 mins by UHPLC-HRMS analysis; format: ADME, organism-based; conditions: in vivo, time 3-240 min
[7] = MRT in male C57BL/6J mouse at 2.8 mg/kg, iv measured for 3 to 240 mins by UHPLC-HRMS analysis; format: ADME, organism-based; conditions: in vivo, time 3-240 min
Albumin = Albumin (Bos taurus, UniProt P02769); assay: Binding affinity to bovine serum albumin assessed as dissociation constant by ITC analysis; format: ADME
NIH3T3 [8] = assay: Inhibition of myofibroblast activation in TGF-beta1-induced EMT in mouse NIH3T3 cells assessed as decrease in alpha-SMA level incubated for 48 hrs by Western blot analysis; format: functional, cell-based; conditions: dose 1-10 µM
NIH3T3 [9] = assay: Inhibition of myofibroblast activation in TGF-beta1-induced EMT in mouse NIH3T3 cells assessed as decrease in collagen I level at 1 to 2 uM incubated for 48 hrs by Western blot analysis; format: functional, cell-based; conditions: dose 1-2 µM
NIH3T3 [10] = assay: Inhibition of myofibroblast activation in TGF-beta1-induced EMT in mouse NIH3T3 cells assessed as decrease in MMP2 level at 1 to 2 uM incubated for 48 hrs by Western blot analysis; format: functional, cell-based; conditions: dose 1-2 µM
NIH3T3 [11] = assay: Inhibition of myofibroblast activation in TGF-beta1-induced EMT in mouse NIH3T3 cells assessed as decrease in vimentin level at 1 to 2 uM incubated for 48 hrs by Western blot analysis; format: functional, cell-based; conditions: dose 1-2 µM
NIH3T3 [12] = assay: Inhibition of myofibroblast activation in TGF-beta1-induced EMT in mouse NIH3T3 cells assessed as decrease in fibronectin mRNA level at 1 to 2 uM incubated for 48 hrs by qPCR analysis; format: functional, cell-based; conditions: dose 1-2 µM
NIH3T3 [13] = assay: Inhibition of myofibroblast activation in TGF-beta1-induced EMT in mouse NIH3T3 cells assessed as decrease in collagen I mRNA level at 1 to 2 uM incubated for 48 hrs by qPCR analysis; format: functional, cell-based; conditions: dose 1-2 µM
NIH3T3 [14] = assay: Inhibition of myofibroblast activation in TGF-beta1-induced EMT in mouse NIH3T3 cells assessed as decrease in TGF-beta1 mRNA level at 1 to 2 uM incubated for 48 hrs by qPCR analysis; format: functional, cell-based; conditions: dose 1-2 µM
HK-2 [15] = assay: Cytotoxicity against human HK-2 cells assessed as inhibition of cell viability at 160 uM incubated for 24 hrs by CCK8 assay; format: toxicity, cell-based; conditions: hk-2, 24 h
HK-2 [16] = assay: Inhibition of myofibroblast activation in TGF-beta1-induced EMT in human HK-2 cells assessed as decrease in collagen I level at 1 to 5 uM incubated for 24 hrs by Western blot analysis; format: functional, cell-based; conditions: dose 1-5 µM
HK-2 [17] = assay: Inhibition of myofibroblast activation in TGF-beta1-induced EMT in human HK-2 cells assessed as increase in CDH-1 mRNA level at 1 to 5 uM incubated for 24 hrs by qPCR analysis; format: functional, cell-based; conditions: dose 1-5 µM
HK-2 [18] = assay: Inhibition of myofibroblast activation in TGF-beta1-induced EMT in human HK-2 cells assessed as decrease in VIM mRNA level at 1 to 5 uM incubated for 24 hrs by qPCR analysis; format: functional, cell-based; conditions: dose 1-5 µM
HK-2 [19] = assay: Inhibition of myofibroblast activation in TGF-beta1-induced EMT in human HK-2 cells assessed as decrease in ACTA2 mRNA level at 1 to 5 uM incubated for 24 hrs by qPCR analysis; format: functional, cell-based; conditions: dose 1-5 µM
Mus musculus [20] = assay: Anti-fibrotic activity in C57BL/6J mouse model of unilateral ureteral obstruction assessed as decrease in fibronectin level at 0.25 mg/kg, ip administered every day for 7 days by Western blot analysis; format: functional, organism-based; conditions: time 7.0 day
Mus musculus [21] = assay: Anti-fibrotic activity in C57BL/6J mouse model of unilateral ureteral obstruction assessed as decrease in alpha-SMA level at 0.25 mg/kg, ip administered every day for 7 days by Western blot analysis; format: functional, organism-based; conditions: time 7.0 day
Mus musculus [22] = assay: Anti-fibrotic activity in C57BL/6J mouse model of unilateral ureteral obstruction assessed as decrease in MMP2 level at 0.25 mg/kg, ip administered every day for 7 days by Western blot analysis; format: functional, organism-based; conditions: time 7.0 day
Mus musculus [23] = assay: Anti-fibrotic activity in C57BL/6J mouse model of unilateral ureteral obstruction assessed as decrease in vimentin level at 0.25 mg/kg, ip administered every day for 7 days by Western blot analysis; format: functional, organism-based; conditions: time 7.0 day
Mus musculus [24] = assay: Anti-fibrotic activity in C57BL/6J mouse model of unilateral ureteral obstruction assessed as decrease in alpha-SMA mRNA level at 0.25 mg/kg, ip administered every day for 7 days by qPCR analysis; format: functional, organism-based; conditions: time 7.0 day
Mus musculus [25] = assay: Anti-fibrotic activity in C57BL/6J mouse model of unilateral ureteral obstruction assessed as decrease in collagen I mRNA level at 0.25 mg/kg, ip administered every day for 7 days by qPCR analysis; format: functional, organism-based; conditions: time 7.0 day
Mus musculus [26] = assay: Anti-fibrotic activity in C57BL/6J mouse model of unilateral ureteral obstruction assessed as decrease in TGF-beta1 mRNA level at 0.25 mg/kg, ip administered every day for 7 days by qPCR analysis; format: functional, organism-based; conditions: time 7.0 day
Mus musculus [27] = assay: Anti-fibrotic activity in C57BL/6J mouse model of unilateral ureteral obstruction assessed as decrease in yellowish appearance of kidney at 0.05 to 1.25 mg/kg, ip administered every day for 7 days; format: functional, organism-based; conditions: dose 0.05-1.25 mg/kg, time 7.0 day
Mus musculus [28] = assay: Anti-fibrotic activity in C57BL/6J mouse model of unilateral ureteral obstruction assessed as decrease in kidney edema at 0.05 to 1.25 mg/kg, ip administered every day for 7 days; format: functional, organism-based; conditions: dose 0.05-1.25 mg/kg, time 7.0 day
Mus musculus [29] = assay: Anti-fibrotic activity in C57BL/6J mouse model of unilateral ureteral obstruction assessed as decrease in kidney fibrosis at 0.05 to 1.25 mg/kg, ip administered every day for 7 days; format: functional, organism-based; conditions: dose 0.05-1.25 mg/kg, time 7.0 day
Mus musculus [30] = assay: Anti-fibrotic activity in C57BL/6J mouse model of unilateral ureteral obstruction assessed as decrease in renal fibronectin […] level administered intraperitoneally every day for 7 days by IHC analysis; format: functional, organism-based; conditions: dose 0.05-1.25 mg/kg, route ip, time 7.0 day
Mus musculus [31] = assay: Anti-fibrotic activity in C57BL/6J mouse model of unilateral ureteral obstruction assessed as decrease in renal collagen I […] level administered intraperitoneally every day for 7 days by IHC analysis; format: functional, organism-based; conditions: dose 0.05-1.25 mg/kg, route ip, time 7.0 day
Mus musculus [32] = assay: Anti-fibrotic activity in C57BL/6J mouse model of unilateral ureteral obstruction assessed as minimum effective dose administered intraperitoneally every day for 7 days; format: functional; conditions: route ip; time 7 day

Sequence of Albumin (P02769 whole entry): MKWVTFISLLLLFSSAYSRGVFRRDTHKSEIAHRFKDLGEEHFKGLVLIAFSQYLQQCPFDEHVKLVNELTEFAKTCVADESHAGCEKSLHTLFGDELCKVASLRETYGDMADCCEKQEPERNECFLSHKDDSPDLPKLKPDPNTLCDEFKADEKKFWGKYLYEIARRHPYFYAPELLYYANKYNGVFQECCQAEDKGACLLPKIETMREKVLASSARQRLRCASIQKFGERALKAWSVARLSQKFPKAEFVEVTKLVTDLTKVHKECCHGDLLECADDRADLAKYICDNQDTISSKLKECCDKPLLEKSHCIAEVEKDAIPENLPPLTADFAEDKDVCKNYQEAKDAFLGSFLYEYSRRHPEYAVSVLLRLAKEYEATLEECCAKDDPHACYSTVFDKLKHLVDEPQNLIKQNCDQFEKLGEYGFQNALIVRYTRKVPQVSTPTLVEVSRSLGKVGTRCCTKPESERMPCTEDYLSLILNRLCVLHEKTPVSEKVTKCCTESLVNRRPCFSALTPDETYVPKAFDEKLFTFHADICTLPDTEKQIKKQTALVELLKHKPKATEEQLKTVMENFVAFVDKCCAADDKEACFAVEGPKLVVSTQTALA

CCCCCCCCCCCC(=O)N[C@H](CC(=O)O)C(=O)N[C@@H](Cc1c[nH]cn1)C(=O)N[C@@H](CC(N)=O)C(=O)N[C@H]1CSCCCCCCSC[C@@H](C(N)=O)NC(=O)[C@@H](C)NC(=O)[C@H](CCC(N)=O)NC(=O)[C@@H]2CCCN2C1=O
1940 ng·h/mL: AUC(0-inf) [6]
Non-toxic: Activity (NIH3T3 [3]) | Activity (HK-2 [15])
active: inhibition (NIH3T3 [1]) | inhibition (NIH3T3 [2]) | inhibition (NIH3T3 [9]) | inhibition (NIH3T3 [10]) | inhibition (NIH3T3 [11]) | inhibition (NIH3T3 [12]) | inhibition (NIH3T3 [13]) | inhibition (NIH3T3 [14]) | inhibition (HK-2 [16]) | inhibition (HK-2 [17]) | inhibition (HK-2 [18]) | inhibition (HK-2 [19]) | Activity (Mus musculus [20]) | Activity (Mus musculus [21]) | Activity (Mus musculus [22]) | Activity (Mus musculus [23]) | Activity (Mus musculus [24]) | Activity (Mus musculus [25]) | Activity (Mus musculus [26]) | Activity (Mus musculus [27]) | Activity (Mus musculus [28]) | Activity (Mus musculus [29]) | Activity (Mus musculus [30]) Dose-dependent-effect | Activity (Mus musculus [31]) Dose-dependent-effect
64.6 min: half-life [4]
inactive: inhibition (NIH3T3 [8]) Active; No Further Enhancement In Antifibrotic Activity Was Observed At Concentrations Above 2 Î¼M
20.2 min: MRT [7]
10.6 µM: Kd (Albumin)
0.05 mg/kg: MEC (Mus musculus [32])
1890 ng·h/mL: AUC(0-t) [5]
